From patent US8802674B2, “Aminopyrimidine derivatives as LRRK2 modulators” (Genentech, Inc., priority 2011, dated 2014)

Each molecule was assayed against LRRK2 (Homo sapiens (Human), UniProt Q5S007, G2019S) (assay: In Vitro LRRK2 LabChip Assay). Details: Table 4.
Type: biochemical
Procedure: In Vitro LRRK2 LabChip Assay
This assay was used to determine a compound's potency in inhibiting activity of LRRK2 by determining, Kiapp, IC50, or percent inhibition values. In a polypropylene plate, LRRK2, fluorescently-labeled peptide substrate, ATP and test compound were incubated together. Using a LabChip 3000 (Caliper Life Sciences), after the reaction the substrate was separated by capillary electrophoresis into two populations: phosphorylated and unphosphorylated. The relative amounts of each were quantitated by fluorescence intensity. LRRK2 Ki was determined according to the equation: Y=V0*(1−((x+Ki*(1+S/Km)+Et)/(2*Et)−(((x+Ki*(1+S/Km)+Et)^2−(4*Et*x))^0.5)/(2*Et))). Ki values in Table 4 and elsewhere herein are shown in μM.
Assay conditions and materials used were as follows:
Compound Plate Preparation:
For serial dilutions, 34.6 μl DMSO was added to columns 3-24. For the assay controls, 37.5 μl DMSO was added to columns 1 and 2 of rows A and P. a,d and 50 μl 25 μM G-028831 (Staurosporine) was added to columns 1 and 2, row B. For the samples: to start at 100 μM, 37.5 μl DMSO was to columns 1 and 2, then 12.5 μl 10 mM compound; to start at 10 μM, 78 μl DMSO was added to columns 1 & 2, then 2 μl 10 mM compound; and to start at 1 μM, 25 μM compound (2 μl 10 mM cmpd+798 μl DMSO) was added to empty columns 1 and 2. A Precision instrument was used to perform 1:3.16 serial dilutions (“PLK_BM_serial_halflog”).
ATP was diluted to 282.1 μM in Complete Kinase Buffer (final concentration was 130 μM).
Total and Blank Preparation:
In Complete Reaction Buffer, substrate was diluted to 4 μM. Equal volumes of Complete Reaction Buffer and 4 μM substrate were combined to obtain the blank. Equal volumes of Complete Reaction Buffer and 4 μM substrate were combined and to the combined solution was added 2× final LRRK2 concentration.
To a 50 μl polypropylene plate, 5 μl/well buffer/substrate was added by hand to Blank wells. A Biomek FX was used to start the kinase reaction (“PLK SAR 23 ATP”). The following were added to the appropriate wells:
5 μl/well compound/ATP in Assay Plate;
5 μl/well kinase/substrate in Assay Plate;
The plate was incubated for 2 hours in the dark. Biomek FX was used to stop the kinase reaction (“PLK Stop”), and 10 μl/well Stop solution was added to the Assay Plate. Results were read on the LabChip 3000.
The LabChip 3000 was run using the job “LRRK2IC50” with the following job settings: […]

LRRK2, sequence (Q5S007 970-2527 G2019S limits assumed): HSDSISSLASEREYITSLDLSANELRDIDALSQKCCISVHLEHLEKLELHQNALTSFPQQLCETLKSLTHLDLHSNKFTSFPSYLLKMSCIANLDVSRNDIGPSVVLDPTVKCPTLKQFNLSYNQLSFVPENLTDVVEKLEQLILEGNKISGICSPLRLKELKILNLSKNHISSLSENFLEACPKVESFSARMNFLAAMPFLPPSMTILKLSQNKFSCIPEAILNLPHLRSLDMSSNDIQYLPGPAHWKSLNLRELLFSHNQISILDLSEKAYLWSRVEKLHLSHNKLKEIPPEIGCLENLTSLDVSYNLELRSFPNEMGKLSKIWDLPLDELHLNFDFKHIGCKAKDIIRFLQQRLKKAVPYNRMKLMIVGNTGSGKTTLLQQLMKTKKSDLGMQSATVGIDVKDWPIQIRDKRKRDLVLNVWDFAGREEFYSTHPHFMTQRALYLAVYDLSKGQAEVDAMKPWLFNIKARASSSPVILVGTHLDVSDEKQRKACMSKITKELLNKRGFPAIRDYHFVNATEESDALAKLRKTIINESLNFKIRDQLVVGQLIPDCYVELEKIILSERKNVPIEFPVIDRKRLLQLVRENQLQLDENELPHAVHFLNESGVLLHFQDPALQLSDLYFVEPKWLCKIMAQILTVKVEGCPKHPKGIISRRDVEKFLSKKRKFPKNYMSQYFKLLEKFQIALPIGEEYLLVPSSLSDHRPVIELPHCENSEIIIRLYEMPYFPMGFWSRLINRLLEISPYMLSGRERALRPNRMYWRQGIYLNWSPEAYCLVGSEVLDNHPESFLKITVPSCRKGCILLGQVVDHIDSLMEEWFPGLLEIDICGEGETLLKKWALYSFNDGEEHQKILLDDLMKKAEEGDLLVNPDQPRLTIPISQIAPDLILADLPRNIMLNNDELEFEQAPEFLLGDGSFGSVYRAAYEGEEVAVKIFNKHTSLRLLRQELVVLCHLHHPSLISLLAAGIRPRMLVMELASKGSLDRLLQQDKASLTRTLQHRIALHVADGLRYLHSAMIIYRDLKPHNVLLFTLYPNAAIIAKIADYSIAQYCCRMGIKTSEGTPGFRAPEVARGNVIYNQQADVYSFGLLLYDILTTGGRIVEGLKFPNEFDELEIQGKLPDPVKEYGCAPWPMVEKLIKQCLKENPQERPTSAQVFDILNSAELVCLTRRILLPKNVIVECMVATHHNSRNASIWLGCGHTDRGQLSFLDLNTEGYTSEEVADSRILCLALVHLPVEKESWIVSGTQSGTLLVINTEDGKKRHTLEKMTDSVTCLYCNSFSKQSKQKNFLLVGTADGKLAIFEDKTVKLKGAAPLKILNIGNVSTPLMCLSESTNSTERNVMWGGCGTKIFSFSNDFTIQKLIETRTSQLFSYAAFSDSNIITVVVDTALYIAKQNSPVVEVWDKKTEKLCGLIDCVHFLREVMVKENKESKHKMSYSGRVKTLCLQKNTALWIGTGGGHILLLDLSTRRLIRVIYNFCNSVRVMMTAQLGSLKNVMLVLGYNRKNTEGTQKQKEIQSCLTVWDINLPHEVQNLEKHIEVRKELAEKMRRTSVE

| Compound | Ki [nM] |
| --- | --- |
| CNc1nc(Nc2ccc(C(=O)N3CCN(C4COC4)CC3)cc2OC)ncc1Br [Example 78, [4-(5-Bromo-4-methylamino-pyrimidin-2-ylamino)-3-methoxy-phenyl]-(4-oxetan-3-yl-piperazin-1-yl)-methanone] | 8 |
| CNc1nc(Nc2ccc(C(=O)N3CCOCC3)cc2OC(C)C)ncc1Cl [Example 79, [4-(5-Chloro-4-methylamino-pyrimidin-2-ylamino)-3-isopropoxy-phenyl]-morpholin-4-yl-methanone] | 15.6 |
| CNc1nc(Nc2ccc(C(=O)N3CCOCC3)cc2O)ncc1Cl [Example 82, [4-(5-Chloro-4-methylamino-pyrimidin-2-ylamino)-3-hydroxy-phenyl]-morpholin-4-yl-methanone] | 28.9 |
| COc1nc(Nc2ccc(C(=O)N3CCOCC3)cc2OC2CCC2)ncc1Br [Example 85, [4-(5-Bromo-4-methoxy-pyrimidin-2-ylamino)-3-cyclobutoxy-phenyl]-morpholin-4-yl-methanone] | 2.8 |
| COc1cc(C(=O)N2CCOCC2)ccc1Nc1ncc(Cl)c(NCC2CCOC2)n1 (centres unmarked) [Example 93, (4-{5-Chloro-4-[(tetrahydro-furan-3-ylmethyl)-amino]-pyrimidin-2-ylamino}-3-methoxy-phenyl)-morpholin-4-yl-methanone] | 14.1 |
| CNc1nc(Nc2ccc(C(=O)N3CCOCC3)cc2OC)ncc1C1CC1 [Example 103, [4-(5-Cyclopropyl-4-methylamino-pyrimidin-2-ylamino)-3-methoxy-phenyl]-morpholin-4-yl-methanone] | 89.5 |
| COCCNc1nc(Nc2ccc(C(=O)N3CCOCC3)cc2OC)ncc1Cl [Example 105, {4-[5-Chloro-4-(2-methoxy-ethylamino)-pyrimidin-2-ylamino]-3-methoxy-phenyl}-morpholin-4-yl-methanone] | 9.4 |
| COCCNc1nc(Nc2ccc(C(=O)N3CCOCC3)cc2OCC(F)(F)F)ncc1Cl [Example 109, [4-[5-Chloro-4-(2-methoxy-ethylamino)-pyrimidin-2-ylamino]-3-(2,2,2-trifluoro-ethoxy)-phenyl]-morpholin-4-yl-methanone] | 9.6 |
| CNc1nc(Nc2ccc(C(=O)N3CCOCC3)cc2OC)ncc1OC [Example 133, (3-methoxy-4-(5-methoxy-4-(methylamino)pyrimidin-2-ylamino)phenyl) (morpholino) methanone] | 259 |
| CNc1nc(Nc2cc(OC)c(C(=O)N(C)C)cc2Cl)ncc1Cl [Example 140, 5-Chloro-4-(5-chloro-4-methylamino-pyrimidin-2-ylamino)-2-methoxy-N,N-dimethyl-benzamide] | 11.8 |
| CNc1nc(Nc2cc(OC)c(C(N)=O)cc2Cl)ncc1Cl [Example 141, 5-Chloro-4-(5-chloro-4-methylamino-pyrimidin-2-ylamino)-2-methoxy-benzamide] | 9.3 |
| CNc1nc(Nc2cc(OC)c(C(=O)NCCO)cc2Cl)ncc1Cl [Example 142, 5-Chloro-4-(5-chloro-4-methylamino-pyrimidin-2-ylamino)-N-(2-hydroxy-ethyl)-2-methoxy-benzamide] | 11 |
| CNC(=O)c1cc(Cl)c(Nc2ncc(Cl)c(NC)n2)cc1OC [Example 144, 5-Chloro-4-(5-chloro-4-methylamino-pyrimidin-2-ylamino)-2-methoxy-N-methyl-benzamide] | 11.3 |

Other lines, results leading:

| Ki [nM] | Compound |
| --- | --- |
| 2.4 | CNc1nc(Nc2ccc(C(=O)N3CCC(C(C)(C)O)CC3)cc2OC)ncc1Br [Example 71, [4-(5-Bromo-4-methylamino-pyrimidin-2-ylamino)-3-methoxy-phenyl]-[4-(l-hydroxy-1-methyl-ethyl)-piperidin-1-yl]-methanone] |
| 6.4 | CNc1nc(Nc2ccc(C(=O)N3CCC(C(F)(F)F)C3)cc2OC)ncc1Br (centres unmarked) [Example 72, [4-(5-Bromo-4-methylamino-pyrimidin-2-ylamino)-3-methoxy-phenyl]-(3-trifluoromethyl-pyrrolidin-1-yl)-methanone] |
| 4.1 | CNc1nc(Nc2ccc(C(=O)N3CCC(C#N)CC3)cc2OC)ncc1Br [Example 73, l-[4-(5-Bromo-4-methylamino-pyrimidin-2-ylamino)-3-methoxy-benzoyl]-piperidine-4-carbonitrile] |
| 2.3 | CNc1nc(Nc2ccc(C(=O)N3CCN(C4CCC4)CC3)cc2OC)ncc1Br [Example 74] |
| 3.8 | CNc1nc(Nc2ccc(C(=O)N3CCN(CC(F)(F)F)CC3)cc2OC)ncc1Br [Example 75, [4-(5-Bromo-4-methylamino-pyrimidin-2-ylamino)-3-methoxy-phenyl]-[4-(2,2,2-trifluoro-ethyl)-piperazin-1-yl]-methanone] |
| 2.4 | CNc1nc(Nc2ccc(C(=O)N3CCC(OC)CC3)cc2OC)ncc1Br [Example 76, [4-(5-Bromo-4-methylamino-pyrimidin-2-ylamino)-3-methoxy-phenyl]-(4-methoxy-piperidin-1-yl)-methanone] |
| 5.1 | CNc1nc(Nc2ccc(C(=O)N3CC[C@@H](O)C3)cc2OC)ncc1Br [Example 77, [4-(5-Bromo-4-methylamino-pyrimidin-2-ylamino)-3-methoxy-phenyl]-((R)-3-hydroxy-pyrrolidin-1-yl)-methanone] |
| 2.7 | COc1cc(C(=O)N2CCOCC2)ccc1Nc1ncc(Cl)c(NCC2CC2)n1 [Example 80, {4-[5-Chloro-4-(cyclopropylmethyl-amino)-pyrimidin-2-ylamino]-3-methoxy-phenyl}-morpholin-4-yl-methanone] |
| 1.5 | COc1cc(C(=O)N2CCOCC2)ccc1Nc1ncc(Cl)c(NC2CCC2)n1 [Example 81, [4-(5-Chloro-4-cyclobutylamino-pyrimidin-2-ylamino)-3-methoxy-phenyl]-morpholin-4-yl-methanone] |
| 2.5 | CCNc1nc(Nc2cc(F)c(C(=O)N3CCOCC3)cc2OC)ncc1Cl [Example 87, [4-(5-Chloro-4-ethylamino-pyrimidin-2-ylamino)-2-fluoro-5-methoxy-phenyl]-morpholin-4-yl-methanone] |
| 5 | COc1cc(C(=O)N2CC(N3CCOCC3)C2)ccc1Nc1ncc(Br)c(OC)n1 [Example 88, [4-(5-Bromo-4-methoxy-pyrimidin-2-ylamino)-3-methoxy-phenyl]-(3-morpholin-4-yl-azetidin-1-yl)-methanone] |
| 2.7 | CNc1nc(Nc2ccc(C(=O)N3CC(N4CCOCC4)C3)cc2OC)ncc1Cl [Example 89, [4-(5-Chloro-4-methylamino-pyrimidin-2-ylamino)-3-methoxy-phenyl]-(3-morpholin-4-yl-azetidin-1-yl)-methanone] |
| 2.4 | COc1cc(C(=O)N2CCOCC2)ccc1Nc1ncc(Cl)c(NC2(C)CCC2)n1 [Example 91, {4-[5-Chloro-4-(1-methyl-cyclobutylamino)-pyrimidin-2-ylamino]-3-methoxy-phenyl}-morpholin-4-yl-methanone] |
| 2.1 | COc1cc(C(=O)N2CCOCC2)ccc1Nc1ncc(I)c(OC)n1 [Example 101, [4-(5-Iodo-4-methoxy-pyrimidin-2-ylamino)-3-methoxy-phenyl]-morpholin-4-yl-methanone] |
| 1.8 | COc1cc(C(=O)N2CCOCC2)ccc1Nc1ncc(Cl)c(NCCC2CC2)n1 [Example 104, {4-[5-Chloro-4-(2-cyclopropyl-ethylamino)-pyrimidin-2-ylamino]-3-methoxy-phenyl}-morpholin-4-yl-methanone] |
| 2 | [2H]C1([2H])OCCN(C(=O)c2ccc(Nc3ncc(Br)c(OC)n3)c(OC)c2)[C@@H]1C [Example 107, [4-(5-Bromo-4-methoxy-pyrimidin-2-ylamino)-3-methoxy-phenyl]-((R)-2,2-di-deutero-3-methyl-morpholin-4-yl)-methanone] |
| 6 | CNc1nc(Nc2ccc(C(=O)N3CCOCC3)cc2Cl)ncc1Cl [Example 115, [3-Chloro-4-(5-chloro-4-methylamino-pyrimidin-2-ylamino)-phenyl]-morpholin-4-yl-methanone] |
| 5.7 | COCCOc1nc(Nc2ccc(C(=O)N3CCOCC3)cc2OC)ncc1Br [Example 139, {4-[5-Bromo-4-(2-methoxy-ethoxy)-pyrimidin-2-ylamino]-3-methoxy-phenyl}-morpholin-4-yl-methanone] |
| 7.8 | CNc1nc(Nc2cc(OC)c(C(=O)N3CCC(F)(F)CC3)cc2Cl)ncc1Cl [Example 146, [5-Chloro-4-(5-chloro-4-methylamino-pyrimidin-2-ylamino)-2-methoxy-phenyl]-(4,4-difluoro-piperidin-1-yl)-methanone] |
